Reference: patent EP4813990A1, “COMPOUND FOR TREATING CANCER” (INNOLAKE BIOPHARMA (HANGZHOU) CO., LTD., priority 2023, dated 2025)

Columns and labels:
Caco-2 cells = assay: Caco-2 permeability; assay type: in vitro ADME
[1] = Liver microsome metabolism; assay type: in vitro ADME
Excerpt: The main biotransformation pathways of ILB-2109 in in vitro liver microsomes and hepatocytes include oxidation, dehydrogenation and glucuronidation (hepatocyte biotransformation pathway), and no human-specific metabolites were detected.

Plasma protein binding [2] = assay type: in vitro ADME; settings: one range given for CD-1 mice, Sprague-Dawley rats, Beagle dogs and cynomolgus monkeys
Plasma protein binding [3] = assay type: in vitro ADME; settings: human plasma
Plasma protein binding [4] = assay type: in vitro ADME; settings: one range given for CD-1 mice, Sprague-Dawley rats, Beagle dogs and cynomolgus monkeys; remark: listed apart in the source
[5] = 4-week repeated-dose toxicity test in rats; parameters: species or system SD rats; settings: Sprague-Dawley, rat, in vivo
Protocol: In accordance with the relevant requirements of the Good Laboratory Practice for Non-clinical Drug Studies issued by the National Medical Products Administration of the People's Republic of China, and following the test protocol and revisions, the safety pharmacology test, single-dose toxicity, genetic toxicity, etc. of ILB-2109 were explored.
SD rats were given continuous intragastric administration of ILB-2109 at doses of 0 (vehicle), 60, 200 and 600 mg/kg for 28 consecutive days. […] WBC and #LYMPH increased or tended to increase in medium and high-dose groups; GLU decreased or tended to decrease in medium and high-dose groups; CREA and UREA increased or tended to increase in female high-dose group; GLOB increased and A/G decreased in female animals of each dose group. […] All the above changes completely recovered during the recovery period. […] ILB-2109 may have toxic effects on digestive system (liver function), blood system (granulocyte series) and urinary system (renal function) of SD rats, which can be reversed at the end of the recovery period.

[6] = test system: histidine-deficient Salmonella typhimurium strains (TA97a, TA98, TA100, TA102 and TA1535); assay: AMES reverse mutation test; assay type: cell-based; settings: 128 ~ 5000 µg/plate, with or without S9 metabolic activation system
Excerpt: This test detected the ability of ILB-2109 to induce reverse mutation of histidine-deficient Salmonella typhimurium strains (TA97a, TA98, TA100, TA102 and TA1535) with and without exogenous metabolic activation system. […] Therefore, under the research conditions, the Ames test result was negative.

Plasma protein binding [7] = assay type: in vitro ADME; settings: one range given for CD-1 mice, Sprague-Dawley rats, Beagle dogs and cynomolgus monkeys; remark: listed apart in the source
[8] = test system: CYP3A, CYP2B6, CYP2C8, CYP2C9, CYP1A2, CYP2C19 and CYP2D6; assay: Metabolic enzyme phenotyping for production of metabolite M4; assay type: in vitro ADME
A2aR = A2aR (Homo sapiens, UniProt P29274); assay: Inhibition of binding of A2aR to its isotopically labeled ligand
Sequence of A2aR (P29274 whole entry): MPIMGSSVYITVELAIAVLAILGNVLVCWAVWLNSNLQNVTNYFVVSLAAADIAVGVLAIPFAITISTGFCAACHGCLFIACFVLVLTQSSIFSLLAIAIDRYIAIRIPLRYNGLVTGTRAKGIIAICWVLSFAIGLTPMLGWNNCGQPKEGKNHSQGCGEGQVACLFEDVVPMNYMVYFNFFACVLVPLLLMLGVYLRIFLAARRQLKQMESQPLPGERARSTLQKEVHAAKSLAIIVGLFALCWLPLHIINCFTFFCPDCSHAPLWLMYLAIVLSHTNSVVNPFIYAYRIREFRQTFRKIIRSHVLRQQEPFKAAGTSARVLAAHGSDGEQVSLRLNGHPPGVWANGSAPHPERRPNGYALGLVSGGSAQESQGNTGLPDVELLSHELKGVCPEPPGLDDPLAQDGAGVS
Excerpt: (§1) Meanwhile, ILB-2109 had high selectivity for A2aR (compared with A1, A2b and A3 receptors, the selectivity was 18.9 times, 40.7 times and 3424.7 times respectively).

A1 receptor = A1 receptor (Homo sapiens, UniProt P30542); assay: Adenosine receptor selectivity, A2aR compared with A1; assay type: binding
Sequence of A1 receptor (P30542 whole entry): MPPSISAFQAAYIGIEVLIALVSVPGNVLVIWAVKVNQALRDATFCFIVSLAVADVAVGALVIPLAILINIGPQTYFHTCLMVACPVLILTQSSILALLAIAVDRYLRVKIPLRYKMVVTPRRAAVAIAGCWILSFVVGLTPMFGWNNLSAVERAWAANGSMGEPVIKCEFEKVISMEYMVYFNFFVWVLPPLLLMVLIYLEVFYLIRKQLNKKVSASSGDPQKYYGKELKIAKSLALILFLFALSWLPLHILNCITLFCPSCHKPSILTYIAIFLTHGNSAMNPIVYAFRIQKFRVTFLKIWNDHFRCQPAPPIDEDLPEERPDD
Excerpt: as §1

[9] = Cynomolgus monkey absorption test (pharmacokinetics); assay type: in vivo, cynomolgus monkeys; settings: for Cmax: read-out: peak concentration (Cmax)
Protocol: According to the Technical Guidelines for Non-clinical Pharmacokinetic Studies of Drugs and the results of in vitro metabolic species difference studies, liquid chromatography-tandem mass spectrometry (LC-MS/MS) was used in this pharmacokinetic study to fully verify the analytical method for the determination of ILB-2109 content in plasma (EDTA-K2 anticoagulation) of Sprague-Dawley rats and cynomolgus monkeys. The linear range of the method was 20.0~20000 nM. The precision, accuracy and other indicators of the method were confirmed to comply with the relevant regulations of biological sample detection.
This experiment studied the pharmacokinetic properties of ILB-2109 in female and male cynomolgus monkeys, including 1) 3 mg/kg single intravenous injection administration study; 2) 3, 15 and 60 mg/kg oral dose escalation study; 3) 15 mg/kg oral administration BID for 7 consecutive days.

Plasma protein binding [10] = assay type: in vitro ADME; settings: one range given for CD-1 mice, Sprague-Dawley rats, Beagle dogs and cynomolgus monkeys; remark: listed apart in the source
[11] = In vivo metabolism in cynomolgus monkeys (plasma profile); settings: male and female monkeys
Excerpt: In in vivo metabolism experiments of cynomolgus monkeys, the relative abundance of parent drug ILB-2109 in plasma samples of male and female monkeys was more than 83%, which was the main component in plasma samples. ILB-2109 was mainly metabolized via oxidation, dehydrogenation and glucuronidation in monkey plasma.

A3 receptor = A3 receptor (Homo sapiens, UniProt P0DMS8); assay: Adenosine receptor selectivity, A2aR compared with A3; assay type: binding
Sequence of A3 receptor (P0DMS8 whole entry): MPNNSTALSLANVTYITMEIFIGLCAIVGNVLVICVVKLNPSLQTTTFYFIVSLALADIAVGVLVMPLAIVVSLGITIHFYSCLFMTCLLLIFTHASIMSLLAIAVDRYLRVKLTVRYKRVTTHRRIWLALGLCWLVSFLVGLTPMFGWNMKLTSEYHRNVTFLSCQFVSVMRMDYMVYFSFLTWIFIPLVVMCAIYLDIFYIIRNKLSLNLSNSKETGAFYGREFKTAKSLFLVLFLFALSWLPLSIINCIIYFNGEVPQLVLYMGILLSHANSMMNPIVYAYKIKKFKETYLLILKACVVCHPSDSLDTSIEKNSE
Excerpt: as §1

[12] = test system: bone marrow polychromatic erythrocytes; assay: Micronucleus test; assay type: in vivo; settings: SD rats, intragastric 500 ~ 2000 mg/kg
Protocol: SD rats were given intragastric administration of 500 ~ 2000 mg/kg ILB-2109.

[13] = both sexes, cynomolgus monkey, plasma, po, 3 mg/kg, cynomolgus monkeys, single oral 3 mg/kg
[14] = both sexes, cynomolgus monkey, plasma, po, 15 mg/kg, cynomolgus monkeys, oral 15 mg/kg twice a day for 7 days, Day 1
[15] = both sexes, cynomolgus monkey, plasma, po, 15 mg/kg, cynomolgus monkeys, oral 15 mg/kg twice a day for 7 days, Day 7
[16] = both sexes, cynomolgus monkey, plasma, po, 15 mg/kg, cynomolgus monkeys, single oral 15 mg/kg
[17] = both sexes, cynomolgus monkey, plasma, po, 60 mg/kg, cynomolgus monkeys, single oral 60 mg/kg

With Cc1cc(-c2c(-c3ccccc3)nc(N)n3nc(CO)nc23)cc(C(F)(F)F)n1 [ILB-2109] the efflux transporter substrate (Caco-2 cells; Caco-2 cells) was “most likely a substrate of efflux transporters”, the “permeability in Caco-2 cells” value (Caco-2 cells; according to existing classification standards) was “high permeability” and the metabolism rate ([1]; Beagle dogs liver microsomes) was “slowly metabolized or non-metabolized”. For the same compound, the metabolism rate ([1]; CD-1 mice liver microsomes) was “moderate rate”, the metabolism rate ([1]; SD rats liver microsomes) was “moderate rate” and the metabolism rate ([1]; cynomolgus monkeys liver microsomes) was “slowly metabolized or non-metabolized”. For the same compound, the metabolism rate ([1]; human liver microsomes) was “slowly metabolized or non-metabolized”, the “binding rate in plasma” value (Plasma protein binding [2]) was 87.3%-95.0% and the “binding rate in plasma” value (Plasma protein binding [3]) was 95.1-95.8%. For the same compound, the “binding rate in plasma” value (Plasma protein binding [4]) was 87.3%-95.0%, the AUC(0-t) ([5]; oral, female SD rats, 600 mg/kg (MTD), 4-week study, read-out: AUC0-24h) was 725 µg·h/mL and the Cmax ([5]; oral, female SD rats, 600 mg/kg (MTD), 4-week study, read-out: Cmax) was 69400 ng/mL. For the same compound, the AUC(0-t) ([5]; oral, male SD rats, 600 mg/kg (MTD), 4-week study, read-out: AUC0-24h) was 481 µg·h/mL, the Cmax ([5]; oral, male SD rats, 600 mg/kg (MTD), 4-week study, read-out: Cmax) was 36300 ng/mL and the NOAEL at 28 days ([5]; both sexes, po) was 60 mg/kg. For the same compound, the MTD at 28 days ([5]; both sexes, po, SD rats, intragastric, 28 consecutive days) was 600 mg/kg, the AUC(0-t) ([5]; female, 60 mg/kg) was 296 µg·h/mL and the Cmax ([5]; female, 60 mg/kg) was 22200 ng/mL. The AUC(0-t) ([5]; male, 60 mg/kg) was 114 µg·h/mL, the Cmax ([5]; male, 60 mg/kg) was 15900 ng/mL and the Ames test result [6] was “negative”. The “binding rate in plasma” value (Plasma protein binding [7]) was 87.3%-95.0%, the “role of CYP2B6, CYP2C8 and CYP2C9 in production of metabolite M4” value [8] was “may play a secondary role” and the “role of other isoenzymes (CYP1A2, CYP2C19 and CYP2D6) in production of metabolite M4” value [8] was “little or no effect”. The IC50 (A2aR) was 2.92 nM, the “selectivity for A2aR compared with A1 receptor” value (A1 receptor) was 18.9 times and the AUC(0-t) ([9]; both sexes, cynomolgus monkey, plasma, iv, 3 mg/kg, female and male cynomolgus monkeys, single intravenous injection 3 mg/kg) was 39.5 ± 5.27 µM·h. For the same compound, the AUC(0-t) [9, 13] was 35.2 ± 6.87 µM·h, the Cmax [9, 13] was 8.19 ± 1.81 µM and the AUC(0-t) [9, 14] was 172 ± 34.4 µM·h. It also gave a Cmax [9, 14] of 18.2 ± 4 µM, an AUC(0-t) [9, 15] of 268 ± 42.5 µM·h and a Cmax [9, 15] of 28.3 ± 4.78 µM. For the same compound, the AUC(0-t) [9, 16] was 192 ± 51.6 µM·h, the Cmax [9, 16] was 33.9 ± 9.66 µM and the AUC(0-t) [9, 17] was 571 ± 254 µM·h. It also gave a Cmax [9, 17] of 59.3 ± 33.3 µM, a bioavailability ([9]; both sexes, cynomolgus monkey, plasma, cynomolgus monkeys, 3 mg/kg oral dose group) of 89.1% and a half-life ([9]; both sexes, cynomolgus monkey, plasma, female and male cynomolgus monkeys, single intravenous injection 3 mg/kg, read-out: elimination half-life (T1/2) (converted)) of 4.33 ± 0.75 h. For the same compound, the clearance ([9]; both sexes, cynomolgus monkey, plasma, female and male cynomolgus monkeys, single intravenous injection 3 mg/kg, read-out: plasma clearance rate (CL)) was 3.13 ± 0.361 mL/min/kg, the Vd ([9]; both sexes, cynomolgus monkey, plasma, female and male cynomolgus monkeys, single intravenous injection 3 mg/kg, read-out: steady-state apparent volume of distribution (Vd)) was 0.867 ± 0.141 L/kg and the “gender difference in systemic exposure (AUC0-last and Cmax)” value ([9]; cynomolgus monkeys, each oral dose) was “no significant gender difference”. For the same compound, the “accumulation of systemic exposure” value ([9]; cynomolgus monkeys, oral 15 mg/kg twice a day for 7 consecutive days) was “no obvious accumulation of systemic exposure”, the peak time ([9]; cynomolgus monkeys, oral 15 mg/kg twice a day for 7 days) was 3.00 ± 1.10 h and the “dose proportionality of systemic exposure (AUC0-last)” value ([9]; cynomolgus monkeys, oral dose 3 to 60 mg/kg) was “increased basically proportionally to the dose”. The peak time ([9]; cynomolgus monkeys, single oral 3 mg/kg) was 1.33 ± 0.516 h, the peak time ([9]; cynomolgus monkeys, single oral 15 mg/kg) was 2.00 ± 1.10 h and the peak time ([9]; cynomolgus monkeys, single oral 60 mg/kg) was 4.00 ± 2.19 h. The “binding rate in plasma” value (Plasma protein binding [10]) was 87.3%-95.0%, the “relative abundance of parent drug in plasma samples” value [11] was “more than 83%” and the “selectivity for A2aR compared with A3 receptor” value (A3 receptor) was 3424.7 times. For the same compound, the micronucleus induction [12] was “no micronucleus-inducing effect”.
